Results: patent US9925166B2, “Methods of treating an overweight or obese subject” (Zafgen, Inc., priority 2008, dated 2018)
Several values for one entry are separate records, joined by “and”; a condition that tells them apart may be missing. Equal values may be shown once. Read-outs that look alike come from different tables or passages of the source.

Experiments:
[1] = Plasma concentration after intraduodenal administration (Example 8); format: in vivo, Sprague-Dawley rats; settings: 30 mg/kg intraduodenal; for ZGN-201 Conc. in Rat Plasma, individual animals: listed as ZGN-201
Method: A study was undertaken to investigate absorption of fumagillin from the small intestine. Five male Sprague-Dawley rats were fasted, and were then catheterized into the duodenum, 1.5 centimeters below the stomach. The stomachs of these rats were tied off so administration would bypass the stomach of each rat. Rats were then infused with 30 mg/kg of fumagillin and an equal volume of Trypan blue (Invitrogen). To determine absorption of fumagillin into the small intestine, blood was collected from the jugular vein of each rat at time points of 0 min., 5 min. (graphically illustrated as 0.083), 15 min. (graphically illustrated as 0.25), 30 min. (graphically illustrated as 0.5), 2 hrs, and 8 hrs.

[2] = target: T1, MetAP-2 (Mus musculus, UniProt O08663); assay: ELISA assay of MetAP-2 binding (free MetAP-2) in adipose tissue lysates of dosed diet-induced obese mice; settings: fumagillin orally 3 mg/kg or 10 mg/kg; diet-induced obese mice; FIG. 1
T1 construct: from tissue; host or cells: adipose tissue of diet-induced obese mice
T1 sequence (O08663 whole entry): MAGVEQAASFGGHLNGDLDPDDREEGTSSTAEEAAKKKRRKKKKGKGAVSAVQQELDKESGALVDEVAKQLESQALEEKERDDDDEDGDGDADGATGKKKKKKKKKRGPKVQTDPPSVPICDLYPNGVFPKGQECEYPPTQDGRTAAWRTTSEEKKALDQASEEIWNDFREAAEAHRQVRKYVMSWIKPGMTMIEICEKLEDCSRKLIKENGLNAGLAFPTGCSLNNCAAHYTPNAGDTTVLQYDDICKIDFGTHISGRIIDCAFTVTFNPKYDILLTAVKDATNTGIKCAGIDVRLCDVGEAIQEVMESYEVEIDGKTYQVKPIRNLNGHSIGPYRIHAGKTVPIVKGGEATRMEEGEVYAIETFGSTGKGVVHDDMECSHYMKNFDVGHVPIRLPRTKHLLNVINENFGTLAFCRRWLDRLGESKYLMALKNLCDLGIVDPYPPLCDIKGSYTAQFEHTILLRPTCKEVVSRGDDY
Method: Diet-induced obese mice were orally (p.o.) administered fumagillin (3 mg/kg or 10 mg/kg; Medivet), subcutaneously administered (s.c.) TNP-470 (1 mg/kg, 3 mg/kg, 10 mg/kg, or 30 mg/kg; synthesized by standard semi-synthetic processes as described in European Patent EP 0 357 061), or administered a solution of 10% dimethyl sulfoxide (DMSO; control; Sigma-Aldrich). Mice were sacrificed and adipose tissue samples were obtained.
An ELISA assay of MetAP-2 binding was conducted with tissue lysates prepared from the adipose tissue samples. The MetAP-2 ELISA is a quantitative assay to determine the amount of free MetAP-2 in tissue or cell lysates, i.e., MetAP-2 not covalently bound to fumagillin or TNP-470. The assay takes advantage of the fact that biotinylated fumagillin can bind to the catalytic site of the MetAP-2 enzyme only if this site has not already been derivatized by fumagillin or TNP-470. The biotinylated MetAP-2-inhibitor complex was captured on a streptavidin-coated plate and detected with a rabbit anti-MetAP-2 antibody (Zymed Laboratories Inc.). Horseradish peroxidase-conjugated anti-rabbit immunoglobulin G (IgG) was added to detect the MetAP-2 antibody immobilized to the streptavidin-coated plate with its covalently bound biotinylated fumagillin. Tetramethylbenzidine (TMB) substrate was added and the reaction was stopped by addition of sulfuric acid. Analysis was performed by determining absorption at 450 nm. Human recombinant MetAP-2 (R&D Systems), pre-bound to biotinylated fumagillin, was used to generate a standard curve.

[3] = mouse, 33 mg/kg/day; Ingbar et al.; cited from earlier work
[4] = Plasma concentration after oral administration in a non-enterically coated capsule (Example 7); format: in vivo, Sprague-Dawley rats; settings: 30 mg/kg capsule oral
Method: A study was undertaken to investigate absorption of fumagillin orally administered in a capsule. Five male Sprague-Dawley rats were fasted, and were then each orally administered a non-enterically coated capsule containing 30 mg/kg of fumagillin. […] (graphically illustrated as 0.17), 20 min. (graphically illustrated as 0.33), 30 min. […]

[5] = system: lean mice; assay: Oral and subcutaneous fumagillin in lean mice (Examples 3 and 4); format: in vivo, C57BLI6NTac mice
From the text: Mice were divided into two groups, a diet-induced obese group and a lean group. For the diet-induced obese group, fifteen week-old C57BL/6NTac mice, maintained prior to and during the study on a diet containing 60% fat on a kilocalorie basis, were further separated into six groups, eight animals per group. Average body weight of these diet-induced obese mice was 38 g at the start of the study. For the lean group, fifteen week-old C57BLI6NTac mice, maintained on a diet containing 4.3% by weight fat prior to and during the study, were further separated into two groups, eight animals per group. Average body weight of these lean mice was 28 g at the start of the study.
Fumagillin was administered to three of the diet-induced obese mice groups by oral gavage as a solution in 10% DMSO, at doses of 0.1 mg/kg/day, 0.3 mg/kg/day, and 1 mg/kg/day respectively. A fourth diet-induced obese mice group received the 10% DMSO vehicle only by oral gavage. A group of lean mice was administered fumagillin by oral gavage as a solution in 10% DMSO at a dose of 1 mg/kg/day. Treatments were administered daily for 11 days.
A study was undertaken to analyze whether oral administration compared to subcutaneous administration of fumagillin affected weight loss in diet-induced obese mice. Mice were divided into two groups, a diet-induced obese group and a lean group. […]

CO[C@@H]1[C@H](OC(=O)/C=C/C=C/C=C/C=C/C(=O)O)CC[C@]2(CO2)[C@H]1[C@@]1(C)O[C@@H]1CC=C(C)C [fumagillin]
ZGN-201 Conc. in Rat Plasma, individual animals ([1]; male rats 1, 3, 4, 5, time point 0 hr): BQL (BQL: 1 ng/mL) | ZGN-201 Conc. in Rat Plasma, individual animals ([1]; male rats 1, 3, 4, 5, time point 0.083 hr): 30286.5 ng/mL and 30532.1 ng/mL and 31057 ng/mL | ZGN-201 Conc. in Rat Plasma, individual animals ([1]; male rats 1, 3, 4, 5, time point 0.25 hr): 9275.7 ng/mL and 9903.7 ng/mL and 13584.2 ng/mL | ZGN-201 Conc. in Rat Plasma, individual animals ([1]; male rats 1, 3, 4, 5, time point 0.5 hr): 1104.6 ng/mL and 2295 ng/mL and 1109.8 ng/mL and 1225.1 ng/mL | ZGN-201 Conc. in Rat Plasma, individual animals ([1]; male rats 1, 3, 4, 5, time point 2 hr): 95 ng/mL and 66.5 ng/mL and 79.3 ng/mL and 27.5 ng/mL | ZGN-201 Conc. in Rat Plasma, individual animals ([1]; male rats 1, 3, 4, 5, time point 8 hr): 9 ng/mL and 6.9 ng/mL and 6.8 ng/mL | absorption profile compared to absorption through the stomach ([1]; rats): large absorption profile in the small intestine | concentration at 0 hr ([1]; male, Sprague-Dawley, rat, plasma, other: intraduodenal, 30 mg/kg, male rats 1, 3, 4, 5, time point 0 hr, read-out: ZGN-201 Conc. in Rat Plasma, individual animals): 1 ng/mL | concentration at 0.083 hr ([1]; male, Sprague-Dawley, rat, plasma, other: intraduodenal, 30 mg/kg, male rats 1, 3, 4, 5, time point 0.083 hr, read-out: ZGN-201 Conc. in Rat Plasma, individual animals): 31400 ng/mL | concentration at 0.25 hr ([1]; male, Sprague-Dawley, rat, plasma, other: intraduodenal, 30 mg/kg, male rats 1, 3, 4, 5, time point 0.25 hr, read-out: ZGN-201 Conc. in Rat Plasma, individual animals): 7710 ng/mL | concentration at 8 hr ([1]; male, Sprague-Dawley, rat, plasma, other: intraduodenal, 30 mg/kg, male rats 1, 3, 4, 5, time point 8 hr, read-out: ZGN-201 Conc. in Rat Plasma, individual animals): 11.9 ng/mL | concentration at 0.083 hr ([1]; male, Sprague-Dawley, rat, plasma, other: intraduodenal, 30 mg/kg, male rats, time point 0.083 hr, read-out: ZGN-201 Conc. in Rat Plasma, Mean): 25100 ng/mL | concentration at 0.25 hr ([1]; male, Sprague-Dawley, rat, plasma, other: intraduodenal, 30 mg/kg, male rats, time point 0.25 hr, read-out: ZGN-201 Conc. in Rat Plasma, Mean): 9200 ng/mL | concentration at 0.5 hr ([1]; male, Sprague-Dawley, rat, plasma, other: intraduodenal, 30 mg/kg, male rats, time point 0.5 hr, read-out: ZGN-201 Conc. in Rat Plasma, Mean): 1730 ng/mL | concentration at 2 hr ([1]; male, Sprague-Dawley, rat, plasma, other: intraduodenal, 30 mg/kg, male rats, time point 2 hr, read-out: ZGN-201 Conc. in Rat Plasma, Mean): 506 ng/mL | concentration at 8 hr ([1]; male, Sprague-Dawley, rat, plasma, other: intraduodenal, 30 mg/kg, male rats, time point 8 hr, read-out: ZGN-201 Conc. in Rat Plasma, Mean): 20 ng/mL | concentration at 5 min ([1]; male, Sprague-Dawley, rat, plasma, other: intraduodenal, 30 mg/kg, rats, 5 min. from administration (time point 0.083), read-out: amount of absorption by the small intestine): 3000 ng/mL | binding to MetAP-2 in adipose tissue [2]: binds MetAP-2 in adipose tissue | side-effect of administration (wasting) [3]: severe weight loss | ZGN-201 Conc. in Rat Plasma, individual animals ([4]; male rats 1-5, time point 0 hr): BQL (BQL: 1 ng/mL) | ZGN-201 Conc. in Rat Plasma, individual animals ([4]; male rats 1-5, time point 0.17 hr): BQL (BQL: 1 ng/mL) | ZGN-201 Conc. in Rat Plasma, individual animals ([4]; male rats 1-5, time point 0.33 hr, listed as ZGN-201): 5.3 ng/mL and 1.9 ng/mL and 1.6 ng/mL and 1.8 ng/mL and 5.2 ng/mL | ZGN-201 Conc. in Rat Plasma, individual animals ([4]; male rats 1-5, time point 0.5 hr, listed as ZGN-201): 14.3 ng/mL and 4.5 ng/mL and 3.6 ng/mL and 3 ng/mL and 11.4 ng/mL | ZGN-201 Conc. in Rat Plasma, individual animals ([4]; male rats 1-5, time point 1 hr, listed as ZGN-201): 36.1 ng/mL and 14.5 ng/mL and 8.9 ng/mL and 3.6 ng/mL and 117.9 ng/mL | ZGN-201 Conc. in Rat Plasma, individual animals ([4]; male rats 1-5, time point 2 hr, listed as ZGN-201): 81.2 ng/mL and 98.2 ng/mL and 125.4 ng/mL and 9.5 ng/mL and 156.4 ng/mL | ZGN-201 Conc. in Rat Plasma, individual animals ([4]; male rats 1-5, time point 8 hr, listed as ZGN-201): 36.6 ng/mL and 47.1 ng/mL and 141.3 ng/mL and 31.6 ng/mL and 116.8 ng/mL | absorption through the stomach ([4]; rats): poorly absorbed through the stomach | time after administration at which absorption is first observed ([4]; rats): 20 min | time of peak absorption after administration ([4]; rats): approximately 2 hrs | maximal concentration absorbed into the blood ([4]; rats, time point 2): approximately 100 ng/ml | concentration at 0.33 hr ([4]; male, Sprague-Dawley, rat, plasma, oral, 30 mg/kg, male rats, time point 0.33 hr, read-out: ZGN-201 Conc. in Rat Plasma, Mean): 3 ng/mL | concentration at 0.5 hr ([4]; male, Sprague-Dawley, rat, plasma, oral, 30 mg/kg, male rats, time point 0.5 hr, read-out: ZGN-201 Conc. in Rat Plasma, Mean): 7 ng/mL | concentration at 1 hr ([4]; male, Sprague-Dawley, rat, plasma, oral, 30 mg/kg, male rats, time point 1 hr, read-out: ZGN-201 Conc. in Rat Plasma, Mean): 36 ng/mL | concentration at 2 hr ([4]; male, Sprague-Dawley, rat, plasma, oral, 30 mg/kg, male rats, time point 2 hr, read-out: ZGN-201 Conc. in Rat Plasma, Mean): 94 ng/mL | concentration at 8 hr ([4]; male, Sprague-Dawley, rat, plasma, oral, 30 mg/kg, male rats, time point 8 hr, read-out: ZGN-201 Conc. in Rat Plasma, Mean): 75 ng/mL | weight change ([5]; 1 mg/kg/day oral gavage): no weight change | weight loss ([5]; 1 mg/kg/day subcutaneous): no weight loss
